Literature values in patent US20220323409A1, “MODIFIED RELEASE FORMULATIONS AND USES THEREOF” (SUNOVION PHARMACEUTICALS INC., priority 2019, published 2022).

How the values were obtained:
[1] = 400-800 mg/day dosage range, product label
[2] = Taubel et al. 2017

SMILES: CCN1CCCC1CNC(=O)c1cc(S(=O)(=O)CC)c(N)cc1OC (racemic) [Racemic (50:50), 4-amino-N-[(1-ethylpyrrolidin-2-yl)methyl]-5-ethylsulfonyl-2-methoxy-benzamide]
- frequency of movement related adverse events (tremor, rigidity, hypokinesia, hypersalivation, akathisia, dyskinesia) [1]: very common
- QT interval prolongation versus plasma concentration [2]: substantially linear increase of prolongation with plasma concentration
